From US20260042764A1, “COMPOSITIONS AND METHODS FOR INHIBITION OF KRAS” (TheRas, Inc., priority 2022, published 2026)

Legend:
[1] = test system: GP2d cells (KRAS G12D); assay: Cell-based pERK HTRF assay in GP2d cell (Biological Example 2); conditions: GP2d (KRAS G12D) cells
Outline: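 Cells grown in DMEM with 10% FBS were exposed to compound for 60 min at 0.25% DMSO, using a 9-point half-log series starting at 1 μM or 100 nM. Lysates were then mixed with d2 and Eu cryptate antibodies for 4–24 h at room temperature, and pERK was read by HTRF.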

[2] = molecular target: T1, Avi-KRAS G12D (2-169) GTP/RAF1 RBD-3xFLAG (51-131) (Homo sapiens, UniProt P01116, G12D); assay: Raf1-KRAS G12D-GTP disruption HTRF assay (Biological Example 3); format: binding; conditions: KRAS G12D, GTP-loaded
T1 construct: Avi-KRAS G12D (2-169)
Outline: (§1)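 An HTRF assay measured disruption of 50 nM Avi-KRAS (2-169)-GTP (WT, G12C, G12D or G12V) bound to RAF1 RBD-3xFLAG (51-131). Buffer was Tris pH 7.5 with 5 mM MgCl2 and 10% DMSO. Compounds (30–0.005 μM, 3-fold, 10 points) were incubated 1 h at room temperature, and activity is given as % of DMSO.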

[3] = molecular target: T2, Avi-KRAS G12C (2-169) GTP/RAF1 RBD-3xFLAG (51-131) (Homo sapiens, UniProt P01116, G12C); assay: Raf1-KRAS G12C-GTP disruption HTRF assay (Biological Example 3); format: binding; conditions: KRAS G12C, GTP-loaded
T2 construct: Avi-KRAS G12C (2-169)
Outline: as §1

[4] = molecular target: T3, Avi-KRAS G12V (2-169) GTP/RAF1 RBD-3xFLAG (51-131) (Homo sapiens, UniProt P01116, G12V); assay: Raf1-KRAS G12V-GTP disruption HTRF assay (Biological Example 3); format: binding; conditions: KRAS G12V, GTP-loaded
T3 construct: Avi-KRAS G12V (2-169)
Outline: as §1

[5] = molecular target: T4, Avi-KRAS WT (2-169) GTP/RAF1 RBD-3xFLAG (51-131) (Homo sapiens, UniProt P01116); assay: Raf1-KRAS WT-GTP disruption HTRF assay (Biological Example 3); format: binding; conditions: KRAS WT, GTP-loaded
T4 construct: Avi-KRAS WT (2-169)
Outline: as §1

[6] = test system: SW620 cells (KRAS G12V); assay: Cell-based pERK HTRF assay in SW620 cell (Biological Example 4)
Outline: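 SW620 (KRAS G12V) cells seeded at 3×10^4/well in RPMI, 10% FBS, then treated next day for 4 h with a 9-point half-log series from 1 μM top (0.25% DMSO). Lysates analyzed for pERK by HTRF (Eu cryptate/d2 antibodies, 4–24 h at room temperature), excitation 320 nm, emission 615 nm.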

[7] = Homo sapiens, SW-620, SW620 (KRAS G12V) cells

T1 sequence (P01116 2-169 isoform P01116-2 G12D): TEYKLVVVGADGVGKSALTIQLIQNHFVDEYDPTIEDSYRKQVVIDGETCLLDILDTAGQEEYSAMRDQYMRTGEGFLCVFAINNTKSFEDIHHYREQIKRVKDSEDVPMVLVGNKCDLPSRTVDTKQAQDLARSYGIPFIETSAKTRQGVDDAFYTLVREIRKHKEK
T3 sequence (P01116 2-169 isoform P01116-2 G12V): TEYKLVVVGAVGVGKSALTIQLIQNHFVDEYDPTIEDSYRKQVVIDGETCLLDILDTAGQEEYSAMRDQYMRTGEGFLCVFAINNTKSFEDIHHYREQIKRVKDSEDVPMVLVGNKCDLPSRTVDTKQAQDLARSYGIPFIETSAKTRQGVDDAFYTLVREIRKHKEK
T4 sequence (P01116 2-169 isoform P01116-2): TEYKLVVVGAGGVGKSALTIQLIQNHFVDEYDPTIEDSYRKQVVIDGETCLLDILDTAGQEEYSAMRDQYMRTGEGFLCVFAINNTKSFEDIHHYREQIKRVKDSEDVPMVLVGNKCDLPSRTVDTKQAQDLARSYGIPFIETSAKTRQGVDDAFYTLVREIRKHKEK
T2 sequence (P01116 2-169 isoform P01116-2 G12C): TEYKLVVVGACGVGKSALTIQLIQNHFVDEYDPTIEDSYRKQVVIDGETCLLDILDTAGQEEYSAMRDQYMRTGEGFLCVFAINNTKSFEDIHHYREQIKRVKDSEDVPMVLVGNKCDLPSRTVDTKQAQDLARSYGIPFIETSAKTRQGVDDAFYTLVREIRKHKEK

| Compound | IC50 ([1]; GP2d) | IC50 [2] | IC50 [3] | IC50 [4] | IC50 [5] | IC50 [6, 7] | IC50 [1] | IC50 ([6]; SW620 (KRAS G12V) cells) |
| --- | --- | --- | --- | --- | --- | --- | --- | --- |
| CCN(c1nc(OC[C@@]23CCCN2C[C@H](F)C3)nc2c(F)c(-c3ccc(F)c4sc(N)c(C#N)c34)c(C(F)(F)F)cc12)[C@@H]1CCN(c2cccn(C)c2=O)C1 [Compound 964] | < 100 nM | 1000 to 10000 nM | 1000 to 10000 nM | 1000 to 10000 nM | 1000 to 10000 nM | < 100 nM | – | – |
| N#Cc1c(N)sc2c(F)ccc(-c3c(C(F)(F)F)cc4c(N5CCCC(c6cccnc6)C5)nc(OC[C@@]56CCCN5C[C@H](F)C6)nc4c3F)c12 (stereo partly drawn) [Compound 944] | 100 to 1000 nM | > 10000 nM | > 10000 nM | > 10000 nM | > 10000 nM | 100 to 1000 nM | – | – |
| CCN(c1nc(OC[C@@]23CCCN2C[C@H](F)C3)nc2c(F)c(-c3ccc(F)c4sc(N)c(C#N)c34)c(C(F)(F)F)cc12)[C@H]1C[C@H](C)N(C(=O)C2C[C@H]2F)C1 (stereo partly drawn) [Compound 884] | < 100 nM | 100 to 1000 nM | ≤ 100 nM | ≤ 100 nM | 100 to 1000 nM | < 100 nM | – | – |
| CCN(c1nc(OC[C@@]23CCCN2C[C@H](F)C3)nc2c(F)c(-c3ccc(F)c4sc(N)c(C#N)c34)c(C(F)(F)F)cc12)C1C[C@H](C)N(C(=O)C2CC2)C1 (stereo partly drawn) [Compound 909] | – | 100 to 1000 nM | 100 to 1000 nM | 100 to 1000 nM | 100 to 1000 nM | – | < 100 nM | < 100 nM |
| CN(c1nc(OC[C@@]23CCCN2C[C@H](F)C3)nc2c(F)c(-c3ccc(F)c4sc(N)c(C#N)c34)c(C(F)(F)F)cc12)[C@H]1CC(=O)N2CCC[C@@H]12 (atropisomer, axis not shown) [Compound 916] | < 100 nM | 100 to 1000 nM | 100 to 1000 nM | 100 to 1000 nM | 100 to 1000 nM | < 100 nM | – | – |
| CN(Cc1cncnc1)c1nc(OC[C@@]23CCCN2C[C@H](F)C3)nc2c(F)c(-c3ccc(F)c4sc(N)c(C#N)c34)c(C(F)(F)F)cc12 (atropisomer, axis not shown) [Compound 898] | < 100 nM | 100 to 1000 nM | 1000 to 10000 nM | 100 to 1000 nM | 1000 to 10000 nM | < 100 nM | – | – |

The next lines start with the values.

| IC50 ([1]; GP2d) | IC50 [2] | IC50 [3] | IC50 [4] | IC50 [5] | IC50 [6, 7] | IC50 [1] | IC50 ([6]; SW620 (KRAS G12V) cells) | Compound |
| --- | --- | --- | --- | --- | --- | --- | --- | --- |
| < 100 nM | 100 to 1000 nM | 100 to 1000 nM | 100 to 1000 nM | 100 to 1000 nM | < 100 nM | – | – | CCN(c1nc(OC[C@@]23CCCN2C[C@H](F)C3)nc2c(F)c(-c3ccc(F)c4sc(N)c(C#N)c34)c(C(F)(F)F)cc12)[C@H]1C[C@H](C)N(C(=O)C2CC2(F)F)C1 (stereo partly drawn) [Compound 881] |
| < 100 nM | ≤ 100 nM | ≤ 100 nM | ≤ 100 nM | 100 to 1000 nM | < 100 nM | – | – | CCN(c1nc(OC[C@@]23CCCN2C[C@H](F)C3)nc2c(F)c(-c3ccc(F)c4sc(N)c(C#N)c34)c(C(F)(F)F)cc12)[C@H]1C[C@H]2COCC(=O)N2C1 (atropisomer, axis not shown) [Compound 882] |
| < 100 nM | 100 to 1000 nM | 100 to 1000 nM | 100 to 1000 nM | 100 to 1000 nM | < 100 nM | – | – | CCN(c1nc(OC[C@@]23CCCN2C[C@H](F)C3)nc2c(F)c(-c3ccc(F)c4sc(N)c(C#N)c34)c(C(F)(F)F)cc12)[C@H]1C[C@H]2CN(CC(F)(F)F)C(=O)N2C1 (atropisomer, axis not shown) [Compound 951] |
| < 100 nM | 100 to 1000 nM | 100 to 1000 nM | 100 to 1000 nM | 100 to 1000 nM | < 100 nM | – | – | CCN(c1nc(OC[C@@]23CCCN2C[C@H](F)C3)nc2c(F)c(-c3ccc(F)c4sc(N)c(C#N)c34)c(C(F)(F)F)cc12)[C@H]1C[C@H](C)N(C(=O)[C@@H]2C[C@@H]2F)C1 (atropisomer, axis not shown) [Compound 841] |
| < 100 nM | 100 to 1000 nM | 100 to 1000 nM | ≤ 100 nM | 100 to 1000 nM | < 100 nM | – | – | CCN(c1nc(OC[C@@]23CCCN2C[C@H](F)C3)nc2c(F)c(-c3ccc(F)c4sc(N)c(C#N)c34)c(C(F)(F)F)cc12)[C@H]1C[C@H](C)N(C(=O)c2cocn2)C1 (atropisomer, axis not shown) [Compound 914] |
